Assay results from publication PMC5099578, “A structural and functional study on the 2-C-methyl-D-erythritol-4-phosphate cytidyltransferase (IspD) from Bacillus subtilis” (Scientific Reports, 2016).

Biological target: T1, BsIspD (Bacillus subtilis, UniProt Q06755)
T1 construct: gene ispD; full length (699 bp gene, 232 residues built); pGEX-6P-1, expressed in E. coli, GST tag cut with PreScission protease; homodimer
Assay: X-ray crystal structure of the complex, […] Å
Assay type: binding
Details: co-crystallised with 10 mM CTP and 10 mM MgCl2; active site, one CTP and one Mg2+ in molecule D only

T1 sequence (Q06755 whole entry): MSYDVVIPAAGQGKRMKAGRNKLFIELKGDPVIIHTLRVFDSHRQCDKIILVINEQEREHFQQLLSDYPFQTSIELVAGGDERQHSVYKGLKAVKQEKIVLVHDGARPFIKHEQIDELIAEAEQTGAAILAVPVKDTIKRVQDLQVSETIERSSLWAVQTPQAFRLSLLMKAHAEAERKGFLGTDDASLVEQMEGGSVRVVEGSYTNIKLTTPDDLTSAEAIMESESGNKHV

Nc1ccn([C@@H]2O[C@H](COP(=O)(O)OP(=O)(O)OP(=O)(O)O)[C@@H](O)[C@H]2O)c(=O)n1 [CTP]
X-ray crystal structure of the complex, 1.90 Å: One CTP molecule and one magnesium ion were observed binding to the molecule D
